Target: T1, γ-Humulene Synthase (ag5) (SEQ ID No: 24) (Abies grandis, UniProt O64405)
T1 construct: For further subcloning of the amplified, full-length cDNA into the pSBETa vector for high-level expression, the pGAG5 insert was amplified; made in house; host or cells: E. coli XL1-Blue/pGAG5 or E. coli BL21(DE3)/pSBAG5
T1 sequence (O64405 1-593): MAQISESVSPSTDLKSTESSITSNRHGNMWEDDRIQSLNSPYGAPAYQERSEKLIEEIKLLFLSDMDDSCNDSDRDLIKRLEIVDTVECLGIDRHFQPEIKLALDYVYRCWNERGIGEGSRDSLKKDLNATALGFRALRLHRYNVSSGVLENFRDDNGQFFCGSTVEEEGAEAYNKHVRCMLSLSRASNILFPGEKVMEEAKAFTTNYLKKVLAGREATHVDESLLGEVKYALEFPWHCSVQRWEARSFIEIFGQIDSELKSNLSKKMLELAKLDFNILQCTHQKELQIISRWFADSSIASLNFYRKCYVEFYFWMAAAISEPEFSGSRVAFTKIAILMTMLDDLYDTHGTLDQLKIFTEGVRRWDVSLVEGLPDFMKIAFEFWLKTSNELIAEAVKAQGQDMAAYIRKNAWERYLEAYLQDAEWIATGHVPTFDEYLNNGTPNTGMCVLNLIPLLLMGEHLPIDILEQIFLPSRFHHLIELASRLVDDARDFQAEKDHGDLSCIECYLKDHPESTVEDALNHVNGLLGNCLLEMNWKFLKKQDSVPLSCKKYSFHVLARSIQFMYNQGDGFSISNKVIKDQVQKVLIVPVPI
Assay: Product profile of recombinant γ-humulene synthase in vitro (preparative assay, GLC-MS)
Assay type: biochemical
Conditions: from [1-3H]farnesyl diphosphate; total ion current chromatogram
Method: (§1) For preparative incubations, the assay was scaled to 5 ml containing the total protein extracted from 100 ml of bacterial culture and 30 μM [1-^3H]farnesyl diphosphate, and the incubation time was extended to 8 h. Aliquots of the olefin fraction and the fraction containing oxygenated metabolites (diethyl ether eluate) were evaluated by liquid scintillation counting, and were analyzed by radio-GLC (Croteau, R. & Cane. D. E. (1985) Methods Enzymol. 110, 383-405; Satterwhite, D. M. & Croteau, R. (1988) J. Chromatogr. 452, 61-73) using a Gow-Mac 550P chromatograph that was equipped with a 3.18 mm×3.66 m stainless steel column packed with 5% OV17 (50% phenyl:50% methylsiloxane) on 100/120 mesh Gas Chrom Q (Alltech) and programmed from 150° C. to 220° C. at 2° C./min with He as carrier. The elution of co-injected standards was monitored with the Gow-Mac thermal conductivity detector (250° C. and 150 mA) and the radioactivity signal was continuously monitored with a Nuclear Chicago Model 8731 gas proportional counter; output data were processed using Perkin-Elmer Turbochrom Software.
(§2) Expression of Sesquiterpene Synthase cDNAs AG4 (SEQ ID No:19) and AG5. (SEQ ID No:23) in E. coli. Both putative sesquiterpene cyclase cDNAs (SEQ ID Nos:19 and 23) were expressed in bacterial strains E. coli XL1-Blue/pGAG4, E. coli XL1-Blue/pGAG5, E. coli BL21(DE3)/pSBAG4, and E. coli BL21(DE3)/pSBAG5 as set forth in EXAMPLE 7. Bacteria were grown to A600=0.5 at 37° C. in 5 ml or 100 ml of LB medium supplemented with 100 μg ampicillin/ml or 30 μg kanamycin/ml as determined by the vector. Cultures were then induced by addition of 1 mM isopropyl-1-thio-β-D-galactopyranoside and grown for another 12 h at 20° C. Cells were harvested by centrifugation (2000×g, 10 min) and resuspended in either 1 ml or 5 ml sesquiterpene synthase assay buffer (EXAMPLE 2). Cells were disrupted by sonication (Braun-Sonic 2000 with microprobe at maximum power for 15 seconds at 0-4° C.) and the homogenates were cleared by centrifugation (18,000×g, 10 min). Preparative assays were employed to generate product for GLC-MS analysis, as set forth in EXAMPLE 2, with quantification of composition via the total ion current chromatogram.
Product Profile of Recombinant γ-Humulene Synthase (SEQ ID No:24) In Vitro.

Compound	sesquiterpene products of γ-humulene synthase, % [%]
CC1=CCCC(C)=CCCC(C)=CCC1 [1,5,9-trimethylcyclododeca-1,5,9-triene (tent. 2 isomers), 1,5,9-trimethylcyclododeca-1,5,9-triene]	0.2
CC(C)C1CCC2(C)C3CC4C(C13)C42C (stereo not drawn) [Cyclosativene]	<0.1
CC(C)=CC/C=C(/C)C1CC=C(C)CC1 (stereo not drawn) [E-α-Bisabolene]	0.9
C=CC(=C)CC/C=C(\C)CCC=C(C)C [E-β-Farnesene]	1.3
CC1(C)CCC[C@@]2(C)[C@@H]3CC4C([C@@H]31)C42C [Longicyclene]	0.2
C=C1[C@H]2CC[C@@H]3[C@H]2C(C)(C)CCC[C@]13C [Longifolene]	11.8
C=C1[C@@H]2CC[C@H]3[C@@H]2[C@@H](C(C)C)CC[C@@]13C [Sativene]	3.1
C=C1CCCC2(C)CCC(C(C)C)=CC12 (stereo not drawn) [Sibirene]	15.1
CC(C)=C1C/C=C(\C)CC/C=C(\C)CC1 [Z-E-Germacrene B (tent.), Z,E-Germacrene B]	0.1
CC1=CC2C(CC1)C(C)=CCC2C(C)C (stereo not drawn) [α-Amorphene]	0.5
CC1=CC[C@H]2[C@H]3[C@@H]1[C@]2(C)CC[C@H]3C(C)C [α-Copaene]	0.1
CC1=CC[C@@]23[C@@H]([C@@H]12)[C@H](C(C)C)CC[C@H]3C [α-Cubebene]	0.1
C=C1CCCC(C)(C)[C@H]2C=C(C)CC[C@@H]12 [α-Himachalene]	4.8
CC1=CC[C@@H]2[C@@H]3[C@H]1[C@@]2(C)CCCC3(C)C [α-Longipinene]	3.4
CC1=CC[C@@H]2[C@H]3[C@H](C(C)C)CC[C@]2(C)[C@@H]13 [α-Ylangene]	2.7
C=C(CCC=C(C)C)[C@@H]1CC=C(C)CC1 [β-Bisabolene]	3.9
C=C1CC[C@@]23[C@@H]([C@@H]12)[C@H](C(C)C)CC[C@H]3C [β-Cubebene]	0.1
CC1CCC=C2CCC3C(C3(C)C)C21C (stereo not drawn) [β-Gurjunene]	2.0
CC1=C[C@H]2C(=C(C)CCCC2(C)C)CC1 [β-Himachalene]	7.2
C=C1CCC2C3C1C2(C)CCCC3(C)C (stereo not drawn) [β-Longipinene]	1.5
C=C1CCC2C3C(C(C)C)CCC2(C)C13 (stereo not drawn) [β-Ylangene]	0.3
CC(C)=CCC/C(C)=C1/CC=C(C)CC1 [γ-Bisabolene]	1.9
CC1=C[C@H]2[C@@H](CC1)C(C)=CCCC2(C)C [γ-Himachalene]	5.8
C=C1C=CC(C)(C)CCCC(C)=CCC1 [γ-Humulene]	28.6
CC1=C[C@H]2C(=C(C)CC[C@H]2C(C)C)CC1 [δ-Amorphene]	0.5

Target: T2, δ-Selinene Synthase (ag4) (SEQ ID No. 20) (Abies grandis, UniProt O64404)
T2 construct: made in house; host or cells: E. coli XL1-Blue/pGAG4 or E. coli BL21(DE3)/pSBAG4
T2 sequence (O64404 1-581): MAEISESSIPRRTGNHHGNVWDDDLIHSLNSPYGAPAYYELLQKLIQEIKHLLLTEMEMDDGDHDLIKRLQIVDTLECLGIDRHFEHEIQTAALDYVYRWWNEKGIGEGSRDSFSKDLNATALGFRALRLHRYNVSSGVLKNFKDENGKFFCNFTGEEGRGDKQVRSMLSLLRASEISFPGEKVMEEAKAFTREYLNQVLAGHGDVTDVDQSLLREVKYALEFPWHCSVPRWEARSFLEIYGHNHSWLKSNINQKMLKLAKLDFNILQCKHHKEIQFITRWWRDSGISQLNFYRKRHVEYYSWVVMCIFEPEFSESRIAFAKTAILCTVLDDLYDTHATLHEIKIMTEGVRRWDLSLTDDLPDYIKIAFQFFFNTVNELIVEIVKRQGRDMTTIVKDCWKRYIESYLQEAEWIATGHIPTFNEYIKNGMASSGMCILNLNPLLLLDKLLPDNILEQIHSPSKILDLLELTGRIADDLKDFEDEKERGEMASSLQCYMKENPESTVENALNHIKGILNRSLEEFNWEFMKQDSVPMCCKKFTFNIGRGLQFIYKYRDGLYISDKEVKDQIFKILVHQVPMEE
Assay: Product profile of recombinant δ-selinene synthase in vitro (preparative assay, GLC-MS)
Assay type: biochemical
Conditions: from [1-3H]farnesyl diphosphate; total ion current chromatogram
Method: as §1, §2
Product Profile of Recombinant δ-Selinene Synthase (SEQ ID No:20) In Vitro.

Compound	sesquiterpene products of δ-selinene synthase, % [%]
CC(C)=C1C/C=C(\C)CC/C=C(\C)CC1 [E,E-Germacrene B]	17.4
C=C(C)[C@@H]1C/C=C(\C)CC/C=C(\C)CC1 [Germacrene A]	6.7
C/C1=C\C=C(\C(C)C)CC/C(C)=C/CC1 [Germacrene C]	3.4
C=C1/C=C/[C@H](C(C)C)CC/C(C)=C/CC1 [Germacrene D]	0.8
CC1=CCC(C(C)C)=C[C@@H]2[C@H](C)CC[C@H]12 [Guaia-6,9-diene]	9.7
CC1=CCCC2(C)CCC(=C(C)C)CC12 (stereo not drawn) [Seli-3,7(11)-diene]	1.2
C=C1CCCC2(C)CCC(C(C)C)=CC12 (stereo not drawn) [Sibirene]	0.7
CC(C)=C1C/C=C(\C)CC/C=C(\C)CC1 [Z-E-Germacrene B (tent.), Z,E-Germacrene B]	1.3
CC1=CC2C(CC1)C(C)=CCC2C(C)C (stereo not drawn) [α-Amorphene]	2.7
CC1=C[C@@H]2[C@@H](CC1)C(C)=CC[C@H]2C(C)C [α-Cadinene]	0.2
CC1=CC[C@H]2[C@H]3[C@@H]1[C@]2(C)CC[C@H]3C(C)C [α-Copaene]	0.1
C=C(C)[C@@H]1CC[C@H](C)C2=C(C1)[C@@H](C)CC2 [α-Guiaene]	0.2
C/C1=C\CC/C(C)=C/CC(C)(C)/C=C/C1 [α-Humulene]	0.7
C=C(C)[C@@H]1CC[C@@]2(C)CCC=C(C)[C@@H]2C1 [α-Selinene]	1.7
CC1=CC[C@@H]2[C@H]3[C@H](C(C)C)CC[C@]2(C)[C@@H]13 [α-Ylangene]	0.1
C=C(CCC=C(C)C)[C@@H]1CC=C(C)CC1 [β-Bisabolene]	0.7
C=C1CC/C=C(\C)CC[C@@H]2[C@@H]1CC2(C)C [β-Caryophyllene]	1.5
CC1=C[C@H]2C(=C(C)CC[C@H]2C(C)C)CC1 [δ-Amorphene]	6.4
CC1=C[C@@H]2C(=C(C)CC[C@H]2C(C)C)CC1 [δ-Cadinene]	1.4
CC1=C2C=C(C(C)C)CCC2(C)CCC1 (stereo not drawn) [δ-Selinene]	25.3

Reference: patent US6451576B1, “Sesquiterpene synthases from grand fir (Abies grandis), and methods of use” (Washington State University Research Foundation, priority 1998, dated 2002)
